Data published in patent publication US9918990B2, “Substituted pyrrolo[2,3-c]pyridines and pyrazolo[3,4-c]pyridines as BET protein inhibitors” (Incyte Corporation, priority 2013, dated 2018).
Counter-ions that a name gives are not always drawn.

Tests used:
BRD4-BD1 = BRD4-BD1 (Homo sapiens (Human), UniProt O60885); assay: BRD4 AlphaScreen assay, BRD4-BD1; assay type: binding; conditions: H4Ac4 peptide, 75 min, room temperature, read-out: BRD4 BD-1 enzyme IC50
Procedure: (§1) BRD4-BD1 and BRD4-BD2 assays were conducted in white 384-well polystyrene plate in a final volume of 20 μL for BD1 and 40 μL for BD2. Inhibitors were first serially diluted in DMSO and added to the plate wells before the addition of other reaction components. […] After plate sealing, the plate was incubated in the dark at room temperature for 75 min. before reading on a PHERAstar FS plate reader (BMG Labtech). IC50 determination was performed by fitting the curve of percent control activity versus the log of the inhibitor concentration using the GraphPad Prism 5.0 software.

BRD4-BD2 = BRD4-BD2 (Homo sapiens (Human), UniProt O60885); assay: BRD4 AlphaScreen assay, BRD4-BD2; assay type: binding; conditions: H4Ac4 peptide, 75 min, room temperature, read-out: BRD4 BD-2 enzyme IC50
Procedure: as §1

C-myc = assay: KMS.12.BM C-myc ELISA assay; assay type: cell-based; conditions: Homo sapiens; KMS.12.BM cells, 2 hours, concentration required for 50% C-myc inhibition
Procedure: KMS.12.BM cell line (human myeloma) was purchased from JCRB (Osaka, Japan) and maintained in RPMI with 10% FBS culture medium. To measure the C-myc inhibitory activity of the compounds, the KMS.12.BM cells are plated in the RPMI culture medium at 75000 cells/well/per 200 μL into a 96-well flat bottom polystyrene tissue culture plate (Corning through VWR, NJ), in the presence or absence of a concentration range of test compounds. After 2 hours, cell are pelleted and lysed with Cell Extraction Buffer (BioSource, Carlsbad, Calif.) in the presence of protease inhibitors (Life Technologies, Grand Island, N.Y. and Sigma, St Louis, Mo.). Clarified lyses are tested in a C-myc commercial ELISA (Life Technologies, Grand Island, N.Y.). Compound inhibition is determined relative to cells cultured with no drug and the IC50 is reported as the compound concentration required for 50% C-myc inhibition. IC50 data for the Examples is presented in Table 10 as determined by Assay C1.

KMS.12.BM cells = assay: KMS.12.BM cell viability assay (Cell Titer-GLO, ATP quantitation); assay type: cell-based; conditions: Homo sapiens, 72 h, 3 days, concentration required for 50% cell death, read-out: KMS cellular IC50
Procedure: KMS.12.BM cell line (human myeloma) was purchased from JCRB (Osaka, Japan) and maintained in RPMI with 10% FBS culture medium. To measure the cytotoxic activity of the compounds through ATP quantitation, the KMS.12.BM cells are plated in the RPMI culture medium at 5000 cells/well/per 100 μL into a 96-well polystyrene clear black tissue culture plate (Greiner-bio-one through VWR, NJ), in the presence or absence of a concentration range of test compounds. After 3 days, […] Cell Titer-GLO Luminescent (Promega, Madison, Wis.) cell culture agent is added to each well for 10 minutes at room temperature to stabilize the luminescent signal. This determines the number of viable cells in culture based on quantitation of the ATP present, which signals the presence of metabolically active cells. Luminescence is measured with the Top Count 384 (Packard Bioscience through Perkin Elmer, Boston, Mass.). Compound inhibition is determined relative to cells cultured with no drug and the IC50 is reported as the compound concentration required for 50% cell death. IC50 data for the Examples is presented in Table 9 as determined by Assay B1.

| Compound | IC50 (BRD4-BD1) [nM] | IC50 (BRD4-BD2) [nM] | IC50 (C-myc) [nM] | IC50 (KMS.12.BM cells) [nM] |
| --- | --- | --- | --- | --- |
| Cn1cc(-c2ccc3[nH]c(=O)[nH]c3c2Oc2ccc(F)cc2F)c2cc[nH]c2c1=O [Example 1, 4-(2,4-Difluorophenoxy)-5-(6-methyl-7-oxo-6,7-dihydro-1H-pyrrolo[2,3-c]pyridin-4-yl)-1,3-dihydro-2H-benzimidazol-2-one] | < 100 | < 100 | ≤ 1000 | ≤ 1000 |
| Cn1cc(-c2ccc3[nH]cnc3c2Oc2ccc(F)cc2F)c2cc[nH]c2c1=O [Example 2, 4-[4-(2,4-Difluorophenoxy)-1H-benzimidazol-5-yl]-6-methyl-1,6-dihydro-7H-pyrrolo[2,3-c]pyridin-7-one trifluoroacetate] | < 100 | < 100 | ≤ 1000 | ≤ 1000 |
| Cc1nc2c(Oc3ccc(F)cc3F)c(-c3cn(C)c(=O)c4[nH]ccc34)ccc2[nH]1 [Example 3, 4-[4-(2,4-Difluorophenoxy)-2-methyl-1H-benzimidazol-5-yl]-6-methyl-1,6-dihydro-7H-pyrrolo[2,3-c]pyridin-7-one trifluoroacetate] | < 100 | < 100 | ≤ 1000 | ≤ 1000 |
| Cn1cc(-c2ccc3c(ncn3C)c2Oc2ccc(F)cc2F)c2cc[nH]c2c1=O [Example 4, 4-[4-(2,4-Difluorophenoxy)-1-methyl-1H-benzimidazol-5-yl]-6-methyl-1,6-dihydro-7H-pyrrolo[2,3-c]pyridin-7-one trifluoroacetate] | < 100 | < 100 | ≤ 1000 | ≤ 1000 |
| Cc1nc2c(Oc3ccc(F)cc3F)c(-c3cn(C)c(=O)c4[nH]ccc34)ccc2n1C [Example 5, 4-[4-(2,4-Difluorophenoxy)-1,2-dimethyl-1H-benzimidazol-5-yl]-6-methyl-1,6-dihydro-7H-pyrrolo[2,3-c]pyridin-7-one trifluoroacetate] | < 100 | < 100 | ≤ 1000 | ≤ 1000 |
| Cn1cc(-c2ccc3c([nH]c(=O)n3C)c2Oc2ccc(F)cc2F)c2cc[nH]c2c1=O [Example 6, 4-(2,4-Difluorophenoxy)-1-methyl-5-(6-methyl-7-oxo-6,7-dihydro-1H-pyrrolo[2,3-c]pyridin-4-yl)-1,3-dihydro-2H-benzimidazol-2-one] | < 100 | < 100 | ≤ 1000 | ≤ 1000 |
| Cn1cc(-c2ccc3c(c2Oc2ccc(F)cc2F)n(C)c(=O)n3C)c2cc[nH]c2c1=O [Example 7, 4-(2,4-Difluorophenoxy)-1,3-dimethyl-5-(6-methyl-7-oxo-6,7-dihydro-1H-pyrrolo[2,3-c]pyridin-4-yl)-1,3-dihydro-2H-benzimidazol-2-one] | < 100 | < 100 | 1000 to 10000 | ≤ 1000 |
| Cn1cc(-c2ccc3[nH]nnc3c2Oc2ccc(F)cc2F)c2cc[nH]c2c1=O [Example 8, 4-[4-(2,4-Difluorophenoxy)-1H-1,2,3-benzotriazol-5-yl]-6-methyl-1,6-dihydro-7H-pyrrolo[2,3-c]pyridin-7-one] | < 100 | < 100 | ≤ 1000 | ≤ 1000 |
| Cn1cc(-c2ccc3c(nnn3C)c2Oc2ccc(F)cc2F)c2cc[nH]c2c1=O [Example 9, 4-[4-(2,4-Difluorophenoxy)-1-methyl-1H-1,2,3-benzotriazol-5-yl]-6-methyl-1,6-dihydro-7H-pyrrolo[2,3-c]pyridin-7-one] | < 100 | < 100 | ≤ 1000 | ≤ 1000 |
| Cn1cc(-c2ccc3[nH]nnc3c2Oc2ccc(F)cc2F)c2cn[nH]c2c1=O [Example 10, 4-[4-(2,4-Difluorophenoxy)-1H-1,2,3-benzotriazol-5-yl]-6-methyl-1,6-dihydro-7H-pyrazolo[3,4-c]pyridin-7-one] | < 100 | < 100 | ≤ 1000 | ≤ 1000 |
| Cn1cc(-c2ccc3[nH]c(=O)[nH]c3c2OCC2CC2)c2cc[nH]c2c1=O [Example 11, 4-(Cyclopropylmethoxy)-5-(6-methyl-7-oxo-6,7-dihydro-1H-pyrrolo[2,3-c]pyridin-4-yl)-1,3-dihydro-2H-benzimidazol-2-one] | < 100 | < 100 | ≤ 1000 | ≤ 1000 |
| Cn1cc(-c2ccc3[nH]cnc3c2OCC2CC2)c2cc[nH]c2c1=O [Example 12, 4-[4-(Cyclopropylmethoxy)-1H-benzimidazol-5-yl]-6-methyl-1,6-dihydro-7H-pyrrolo[2,3-c]pyridin-7-one] | < 100 | < 100 | ≤ 1000 | ≤ 1000 |
| Cc1nc2c(OCC3CC3)c(-c3cn(C)c(=O)c4[nH]ccc34)ccc2[nH]1 [Example 13, 4-[4-(Cyclopropylmethoxy)-2-methyl-1H-benzimidazol-5-yl]-6-methyl-1,6-dihydro-7H-pyrrolo[2,3-c]pyridin-7-one] | < 100 | < 100 | ≤ 1000 | ≤ 1000 |
| Cn1cc(-c2ccc3[nH]cnc3c2Oc2ccc(F)cc2F)c2cn[nH]c2c1=O [Example 14, 4-[4-(2,4-Difluorophenoxy)-1H-benzimidazol-5-yl]-6-methyl-1,6-dihydro-7H-pyrazolo[3,4-c]pyridin-7-one] | < 100 | < 100 | ≤ 1000 | ≤ 1000 |
| Cc1nc2c(Oc3ccc(F)cc3F)c(-c3cn(C)c(=O)c4[nH]ncc34)ccc2[nH]1 [Example 15, 4-[4-(2,4-Difluorophenoxy)-2-methyl-1H-benzimidazol-5-yl]-6-methyl-1,6-dihydro-7H-pyrazolo[3,4-c]pyridin-7-one] | < 100 | < 100 | ≤ 1000 | ≤ 1000 |
| Cn1cc(-c2ccc3c(c2Oc2ccccc2)NC(=O)C(C)(C)O3)c2cc[nH]c2c1=O [Example 95, 2,2-Dimethyl-6-(6-methyl-7-oxo-6,7-dihydro-1H-pyrrolo[2,3-c]pyridin-4-yl)-5-phenoxy-2H-1,4-benzoxazin-3(4H)-one] | < 100 | < 100 |  | ≤ 1000 |
| Cn1cc(-c2ccc3c([nH]c(=O)n3C)c2Sc2ccccc2)c2cc[nH]c2c1=O [Example 97, 1-Methyl-5-(6-methyl-7-oxo-6,7-dihydro-1H-pyrrolo[2,3-c]pyridin-4-yl)-4-(phenylthio)-1,3-dihydro-2H-benzimidazol-2-one] | < 100 | < 100 |  | ≤ 1000 |
| CCSc1c(-c2cn(C)c(=O)c3[nH]ccc23)ccc2c1[nH]c(=O)n2C [Example 98, 4-(Ethylthio)-1-methyl-5-(6-methyl-7-oxo-6,7-dihydro-1H-pyrrolo[2,3-c]pyridin-4-yl)-1,3-dihydro-2H-benzimidazol-2-one] | < 100 | < 100 |  | ≤ 1000 |
| CN1C(=O)COc2ccc(-c3cn(C)c(=O)c4[nH]ccc34)c(Oc3ccccc3)c21 [Example 100, 4-Methyl-6-(6-methyl-7-oxo-6,7-dihydro-1H-pyrrolo[2,3-c]pyridin-4-yl)-5-phenoxy-2H-1,4-benzoxazin-3(4H)-one] | 100 to 1000 | < 100 |  | ≤ 1000 |
| Cn1cc(-c2ccc3c(nc(CNC(=O)C4CCC4)n3C)c2Oc2ccccc2)c2cc[nH]c2c1=O [Example 111, N-{[1-Methyl-5-(6-methyl-7-oxo-6,7-dihydro-1H-pyrrolo[2,3-c]pyridin-4-yl)-4-phenoxy-1H-benzimidazol-2-yl]methyl}cyclobutanecarboxamide] | < 100 | < 100 |  | ≤ 1000 |
| Cn1cc(-c2ccc3c(nc(CNC(=O)C4CC4)n3C)c2Oc2ccccc2)c2cc[nH]c2c1=O [Example 112, N-{[1-Methyl-5-(6-methyl-7-oxo-6,7-dihydro-1H-pyrrolo[2,3-c]pyridin-4-yl)-4-phenoxy-1H-benzimidazol-2-yl]methyl}cyclopropanecarboxamide] | < 100 | < 100 |  | ≤ 1000 |
